Laboratory results reported in patent US11207409B2, “X-RAY psoralen activated cancer therapy (X-PACT) with associated treatments” (priority 2017, dated 2021).

Tested on: murine tumor cell lines (breast-4T1, glioma-CT2A, and sarcoma KP15B8)
Experimental: Guava Annexin V flow cell cytometry was used to quantify cytotoxicity in 3 murine tumor cell lines (breast-4T1, glioma-CT2A, and sarcoma KP15B8). In-vitro X-PACT studies were conducted on cells prepared in the following manner. Cells were incubated in appropriate growing media and buffers before being trypsinized and plated evenly onto twelve (12) well plates for 24 hours. About 20 minutes prior to X-PACT irradiation, the wells of each plate were exposed to the following combinations of additives: (1) control ˜cells only with no additives, (2) UVADEX only, (3) phosphors only, (4) UVADEX+phosphors. […] The plates were then irradiated with x-rays by placing the plate at a known distance from the x-ray source (e.g., 50 cm). […]
Two primary flow cytometry metrics were used to evaluate the X-PACT treatments, both determined at 48h after X-PACT treatment. […] The first metric is metabolically viable cell count (or cell viability) determined from the number of whole cells per well as determined using forward scattering (FSC). […] (All wells on a given plate receive the same dose.) The second metric is Annexin V (+) signal, which is the fraction of the metabolically viable cells which expressed a positive Annexin V signal as determined by flow cell cytometry, and include any cells advancing toward early or late apoptotic cell death. […]

Row | Substance | % Viability (1-Toxicity) [%]
1 | Zn2SiO4:Mn | 75
2 | 3Ca3(PO4)2•Ca(Fl,Cl)2:Sb^3+,Mn^2+ [GTP 4300] | 70
